Results from patent US9919998B2, “Antibacterial agents: Nα-aroyl-N-aryl-phenylalaninamides” (priority 2014, dated 2018).
Values after ≈ are worked out from the molar mass of the structure shown. Values joined by “and” are separate entries in the source; they are usually repeats but may differ in a detail not shown here. Identical values can stand only once. Like-named read-outs stand apart in the source and are kept apart here.

Columns and labels:
[1] = molecular target: Mycobacterium tuberculosis RNA polymerase (Mycobacterium tuberculosis, UniProt P9WGY7+P9WGY9); experiment: Run-off transcription assay with Mycobacterium tuberculosis RNA polymerase (radiochemical); assay type: biochemical
Experimental: Run-off transcription assays with Mycobacterium tuberculosis RNA polymerase were performed using reaction mixtures containing (10 μl): 0-100 μM test compound, 75 nM Mycobacterium tuberculosis RNA polymerase core enzyme, 300 nM Mycobacterium tuberculosis σ^A, 20 nM 130 bp DNA fragment containing positions −100 to −1 of the bacteriophage […] N25 promoter followed by positions +1 to +30 of the lacUV5-15 promoter of [Mukhopadhyay, J., Kapanidis, A., Mekler, V., Kortkhonjia, E., Ebright, Y., Ebright, R. (2001) Cell 106, 453-463], 25 nM [alpha-^32P]UTP (600 Bq/pmol) for an initial 2 min at 37° C. and 100 μM [alpha-^32P]UTP (6 Bq/pmol) for a subsequent 5 min at 37° C., 100 μM ATP, 100 μM GTP, 100 μM UTP, 100 μM CTP, 40 mM Tris-HCl, pH 8.0, 80 mM NaCl, 5 mM MgCl2, 2.5 mM DTT, and 12.7% glycerol. Reactions were terminated by addition of […] 80% formamide, 10 mM EDTA, 0.04% bromophenol blue, and 0.04% xylene cyanol, followed by heating for 5 min at 90° C. Reaction products were resolved by 15% urea-PAGE, and quantified using a storage-phosphor scanner.

[2] = system: Mycobacterium tuberculosis H37Rv; experiment: Microplate Alamar Blue assay (MABA) MIC, M. tuberculosis; assay type: cell-based
Description: (§1) Minimal inhibitory concentrations (MICs) in Mycobacterium tuberculosis H37Rv and Mycobacterium avium ATCC 25291 were quantified using microplate Alamar Blue assays as described (MABA; [Collins, L. & Franzblau, S. (1997) Microplate Alamar Blue assay versus BACTEC 460 system for high-throughput screening of compounds against Mycobacterium tuberculosis and Mycobacterium avium. Antimicrob. Agents Chemother. 41, 1004-1009]).

[3] = system: Mycobacterium smegmatis ATCC 19420; experiment: Broth microdilution MIC, M. smegmatis; assay type: cell-based; conditions: Mycolicibacterium smegmatis
Description: (§2) MICs in Mycobacterium smegmatis ATCC 19420 and Mycobacterium smegmatis ATCC 19420 derivatives were quantified using broth microdilution assays as described [Clinical and Laboratory Standards Institute (CLSI/NCCLS) (2009) Methods for Dilution Antimicrobial Susceptibility Tests for Bacteria That Grow Aerobically; Approved Standard, Eighth Edition. CLIS Document M07-A8 (CLIS, Wayne Pa.)].

[4] = system: Vero E6 ATCC CRL1586 cells; experiment: Mammalian-cell cytotoxicity, minimal cytotoxic concentration (CellTiter96); assay type: cell-based
Experimental: Minimal cytotoxic concentrations (MCCs) against mammalian cells in culture were determined using Vero E6 ATCC CRL1586 cells and the CellTiter96 assay kit (Promega, Inc.). […]

[5] = system: Mycobacterium avium ATCC 25291; experiment: Microplate Alamar Blue assay (MABA) MIC, M. avium; assay type: cell-based; conditions: ATCC25291, M. avium ATCC 25291
Description: as §1

[6] = system: rifampin-resistant mutants, derivatives of M. smegmatis ATCC19420; experiment: MICs in rifampin-resistant mutants (cross-resistance levels); assay type: cell-based, Mycobacterium smegmatis
Description: as §2

[7] = Inhibition of mycobacterial RNA polymerase (IC50s), radiochemical transcription assays, M. tuberculosis RNA polymerase
[8] = MABA-MIC assays, read-out: Inhibition of mycobacterial growth in culture (MICs)
[9] = ATCC19420, broth microdilution assays, M. smegmatis ATCC19420, read-out: Inhibition of mycobacterial growth in culture (MICs)
[10] = IC50 Mycobacterium tuberculosis RNA polymerase
[11] = read-out: MIC Mycobacterium tuberculosis H37Rv
[12] = ATCC19420, M. smegmatis ATCC 19420, read-out: MIC Mycobacterium smegmatis ATCC 19420

Mycobacterium tuberculosis RNA polymerase, sequence (P9WGZ1 whole entry, the tested form may be a part): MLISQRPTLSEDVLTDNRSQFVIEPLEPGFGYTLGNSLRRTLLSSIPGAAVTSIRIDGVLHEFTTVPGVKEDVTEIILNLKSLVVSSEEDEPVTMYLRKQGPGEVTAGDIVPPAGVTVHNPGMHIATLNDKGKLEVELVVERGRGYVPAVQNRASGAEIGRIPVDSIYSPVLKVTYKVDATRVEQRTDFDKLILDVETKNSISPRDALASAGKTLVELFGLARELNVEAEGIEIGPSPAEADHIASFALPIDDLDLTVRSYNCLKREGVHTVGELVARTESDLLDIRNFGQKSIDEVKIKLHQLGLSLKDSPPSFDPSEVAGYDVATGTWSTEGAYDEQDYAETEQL
Mycobacterium tuberculosis RNA polymerase, sequence (P9WGY5 whole entry, further chain, the tested form may be a part): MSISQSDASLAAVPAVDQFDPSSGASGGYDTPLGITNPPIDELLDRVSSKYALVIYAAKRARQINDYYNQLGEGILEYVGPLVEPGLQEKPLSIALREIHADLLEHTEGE
Mycobacterium tuberculosis RNA polymerase, sequence (P9WGY9 whole entry, the tested form may be a part): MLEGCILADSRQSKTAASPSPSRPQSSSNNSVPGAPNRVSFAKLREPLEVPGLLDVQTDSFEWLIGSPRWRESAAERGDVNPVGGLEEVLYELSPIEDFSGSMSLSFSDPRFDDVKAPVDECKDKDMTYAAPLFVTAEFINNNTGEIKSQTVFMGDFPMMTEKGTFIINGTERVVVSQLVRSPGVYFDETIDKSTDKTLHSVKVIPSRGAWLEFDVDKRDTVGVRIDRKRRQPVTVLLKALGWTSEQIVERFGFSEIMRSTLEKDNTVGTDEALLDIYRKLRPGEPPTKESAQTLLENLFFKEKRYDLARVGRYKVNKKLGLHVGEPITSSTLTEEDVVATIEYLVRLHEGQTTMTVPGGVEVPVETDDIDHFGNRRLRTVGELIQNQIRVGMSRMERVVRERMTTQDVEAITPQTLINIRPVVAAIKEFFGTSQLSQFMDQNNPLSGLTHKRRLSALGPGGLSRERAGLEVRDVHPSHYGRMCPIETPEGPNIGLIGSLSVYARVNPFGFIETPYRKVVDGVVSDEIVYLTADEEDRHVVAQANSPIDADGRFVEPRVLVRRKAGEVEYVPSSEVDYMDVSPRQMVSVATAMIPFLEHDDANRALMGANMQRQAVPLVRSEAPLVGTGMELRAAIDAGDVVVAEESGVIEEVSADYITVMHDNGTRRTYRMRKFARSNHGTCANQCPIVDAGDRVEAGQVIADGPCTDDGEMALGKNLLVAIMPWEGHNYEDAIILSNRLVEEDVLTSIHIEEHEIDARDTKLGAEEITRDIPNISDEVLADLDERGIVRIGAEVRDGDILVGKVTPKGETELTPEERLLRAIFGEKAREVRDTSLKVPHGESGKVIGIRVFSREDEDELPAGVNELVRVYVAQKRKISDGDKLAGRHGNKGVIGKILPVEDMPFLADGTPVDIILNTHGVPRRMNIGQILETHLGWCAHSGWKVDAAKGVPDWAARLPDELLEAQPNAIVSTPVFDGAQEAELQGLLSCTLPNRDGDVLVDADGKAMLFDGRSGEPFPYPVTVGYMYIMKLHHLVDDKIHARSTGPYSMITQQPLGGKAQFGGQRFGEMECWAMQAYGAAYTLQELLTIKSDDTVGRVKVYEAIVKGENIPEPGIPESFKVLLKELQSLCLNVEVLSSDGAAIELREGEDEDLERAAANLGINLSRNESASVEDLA
Mycobacterium tuberculosis RNA polymerase, sequence (P9WGI1 whole entry, further chain, the tested form may be a part): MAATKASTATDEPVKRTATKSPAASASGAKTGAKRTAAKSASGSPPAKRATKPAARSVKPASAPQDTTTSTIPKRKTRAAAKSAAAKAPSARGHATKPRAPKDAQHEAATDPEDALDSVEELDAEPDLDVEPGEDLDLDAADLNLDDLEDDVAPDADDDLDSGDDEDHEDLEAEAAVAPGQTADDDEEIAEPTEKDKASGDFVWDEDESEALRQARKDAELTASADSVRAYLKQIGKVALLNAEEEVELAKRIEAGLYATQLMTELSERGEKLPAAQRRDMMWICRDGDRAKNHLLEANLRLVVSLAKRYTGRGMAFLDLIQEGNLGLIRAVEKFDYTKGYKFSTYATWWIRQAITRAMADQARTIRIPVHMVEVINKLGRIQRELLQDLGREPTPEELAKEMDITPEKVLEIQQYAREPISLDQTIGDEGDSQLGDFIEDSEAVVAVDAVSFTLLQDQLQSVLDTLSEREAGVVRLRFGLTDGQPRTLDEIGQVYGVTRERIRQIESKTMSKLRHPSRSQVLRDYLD
Mycobacterium tuberculosis RNA polymerase, sequence (P9WGY7 whole entry, the tested form may be a part): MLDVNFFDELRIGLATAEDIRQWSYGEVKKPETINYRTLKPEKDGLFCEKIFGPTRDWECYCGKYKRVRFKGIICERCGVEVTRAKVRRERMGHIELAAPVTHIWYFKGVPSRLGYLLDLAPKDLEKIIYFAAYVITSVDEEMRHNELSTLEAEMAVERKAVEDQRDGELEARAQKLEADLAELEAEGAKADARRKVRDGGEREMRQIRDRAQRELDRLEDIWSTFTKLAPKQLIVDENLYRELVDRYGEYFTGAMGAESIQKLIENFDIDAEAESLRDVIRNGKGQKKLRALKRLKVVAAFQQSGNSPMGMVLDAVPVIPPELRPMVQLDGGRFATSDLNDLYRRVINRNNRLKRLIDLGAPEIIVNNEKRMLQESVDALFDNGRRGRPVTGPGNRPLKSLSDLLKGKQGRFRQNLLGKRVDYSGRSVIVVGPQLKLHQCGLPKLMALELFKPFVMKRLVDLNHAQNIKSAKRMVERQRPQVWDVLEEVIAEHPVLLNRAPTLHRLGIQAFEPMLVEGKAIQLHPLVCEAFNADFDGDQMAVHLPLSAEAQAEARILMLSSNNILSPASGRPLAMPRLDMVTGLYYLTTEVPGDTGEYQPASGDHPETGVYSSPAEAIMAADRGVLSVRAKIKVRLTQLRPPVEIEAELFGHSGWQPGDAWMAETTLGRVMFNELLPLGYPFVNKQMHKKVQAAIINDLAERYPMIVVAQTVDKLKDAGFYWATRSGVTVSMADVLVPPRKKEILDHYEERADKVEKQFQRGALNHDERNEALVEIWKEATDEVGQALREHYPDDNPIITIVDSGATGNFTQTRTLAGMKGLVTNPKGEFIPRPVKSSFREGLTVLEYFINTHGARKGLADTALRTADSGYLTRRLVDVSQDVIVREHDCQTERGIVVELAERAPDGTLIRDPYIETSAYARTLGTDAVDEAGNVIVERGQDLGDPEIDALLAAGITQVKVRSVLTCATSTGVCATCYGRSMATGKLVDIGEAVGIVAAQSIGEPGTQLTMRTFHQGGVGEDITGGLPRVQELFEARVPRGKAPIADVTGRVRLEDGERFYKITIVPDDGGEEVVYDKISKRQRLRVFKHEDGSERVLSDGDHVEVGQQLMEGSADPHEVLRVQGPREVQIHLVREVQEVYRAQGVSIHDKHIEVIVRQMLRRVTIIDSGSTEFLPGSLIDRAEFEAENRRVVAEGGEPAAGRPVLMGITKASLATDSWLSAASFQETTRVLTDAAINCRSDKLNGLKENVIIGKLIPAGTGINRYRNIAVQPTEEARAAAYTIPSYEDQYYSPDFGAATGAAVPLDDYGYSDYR

Row | SMILES | IC50 ([1]; radiochemical transcription assays, M. tuberculosis RNA polymerase, read-out: Inhibition of mycobacterial RNA polymerase (IC50s)) | IC50 [1, 7] [nM] | MIC [2, 8] [µg/mL] | MIC [3, 9] [µg/mL] | IC50 [1, 10] [nM] | MIC [2, 11] [µg/mL] | MIC [3, 12] [µg/mL] | MCC mammalian cells Vero E6 ATCC CRL1586 [4] [µg/mL] | MIC [5] [µg/mL] | cross-resistance of rifampin-resistant mutants to the compound [6]
1 | O=C(Nc1ccccn1)[C@H](Cc1ccccc1)Nc1ccccc1 | ≥ 100 nM and ~1000 nM |  |  |  |  |  |  |  |  | 
2 | Cc1ccccc1NC(=O)[C@@H](Cc1ccccc1)NC(=O)c1ccccc1 [AAP1a, Nα-benzoyl-N-(2-methylphenyl)-D-phenylalaninamide] |  | 130 | 3.13 (≈ 8.73 µM) | 0.2 (≈ 0.558 µM) |  |  |  |  |  | 
3 | Cc1ccccc1NC(=O)[C@H](Cc1ccccc1)NC(=O)c1ccccc1 [AAP1b, Nα-benzoyl-N-(2-methylphenyl)-L-phenylalaninamide] |  | 12000 | > 50 | 1.56 (≈ 4.35 µM) |  |  |  |  |  | 
4 | Cc1ccc(NC(=O)C(Cc2ccccc2)NC(=O)c2ccco2)cc1 (stereo not drawn) [AAP2] |  | 5300 | 50 (≈ 144 µM) |  |  |  |  |  |  | 
5 | Cc1ccccc1NC(=O)C(Cc1cccc(O)c1)NC(=O)c1ccccc1 (stereo not drawn) [I-12] |  |  |  |  | 3500 | > 50 | 3.12 (≈ 8.35 µM) | >100 |  | 
6 | Cc1ccc(F)cc1NC(=O)C(Cc1ccccc1)NC(=O)c1ccccc1 (stereo not drawn) [I-75] |  |  |  |  | 990 | 1.56 (≈ 4.14 µM) | 0.195 (≈ 0.518 µM) | 4 | 1.56 (≈ 4.14 µM) | 
7 | Cc1ccccc1NC(=O)C(Cc1ccccc1)NC(=O)c1ccccc1F (stereo not drawn) [I-80] |  |  |  |  | 2800 | 3.12 (≈ 8.29 µM) | 0.39 (≈ 1.04 µM) | 43 | 6.25 (≈ 16.6 µM) | No rifampin-resistant mutant was found to exhibit cross-resistance
8 | CCc1ccccc1NC(=O)C(Cc1ccccc1)NC(=O)c1ccccc1 (stereo not drawn) [I-115] |  |  |  |  |  | > 50 | 0.39 (≈ 1.05 µM) | 37 | > 50 | No rifampin-resistant mutant was found to exhibit cross-resistance
9 | Cc1c(NC(=O)C(Cc2ccccc2)NC(=O)c2ccccc2)cccc1C(F)(F)F (stereo not drawn) [I-160] |  |  |  |  |  | > 50 | 3.12 (≈ 7.33 µM) | 21 | > 50 | No rifampin-resistant mutant was found to exhibit cross-resistance
10 | O=C(NC(Cc1ccccc1)C(=O)Nc1ccccc1N1CCOCC1)c1ccccc1 (stereo not drawn) [I-181] |  |  |  |  | 400 | 0.78 (≈ 1.82 µM) | 0.073 (≈ 0.17 µM) | >100 | 6.25 (≈ 14.6 µM) | 
11 | Cc1ncccc1NC(=O)C(Cc1ccccc1)NC(=O)c1ccccc1 (stereo not drawn) [II-5] |  |  |  |  |  | 50 (≈ 139 µM) | 3.12 (≈ 8.68 µM) | >36 | > 50 | No rifampin-resistant mutant was found to exhibit cross-resistance
12 | Cc1ccccc1NC(=O)C(Cc1ccccc1)NC(=O)c1ccccn1 (stereo not drawn) [II-12] |  |  |  |  |  | 25 (≈ 69.6 µM) | 3.12 (≈ 8.69 µM) | >36 | 50 (≈ 139 µM) | No rifampin-resistant mutant was found to exhibit cross-resistance
13 | O=C(NC(Cc1ccccc1)C(=O)Nc1cccc2cc[nH]c12)c1ccccc1 (stereo not drawn) [II-28] |  |  |  |  |  | 12.5 (≈ 32.6 µM) | 0.78 (≈ 2.03 µM) | 13 | > 50 | No rifampin-resistant mutant was found to exhibit cross-resistance
